Earlier results in patent US20120190734A1, “COMPOUNDS AND COMPOSITIONS FOR TREATING INFECTION” (priority 2011, published 2012).

Experiments:
[1] = test system: herpes simplex virus (HSV-2)
[2] = target: HIV-1 reverse transcriptase (Human immunodeficiency virus type 1 group M subtype B, UniProt P04585)

Compound | anti-herpes simplex virus (HSV-2) activity in vitro [1] | effect on HIV-1 reverse transcriptase activity [2] | also measured
O=c1cc(-c2ccc(O)cc2)oc2cc(O)cc(O)c12 [5,7,4-truhydroxyflavone] |  |  | anti-influenza virus activity (influenza virus): anti-influenza virus activity
O=C(O[C@@H]1O[C@@H]2COC(=O)c3cc(O)c(O)c(O)c3-c3c(cc(O)c(O)c3O)C(=O)O[C@H]2[C@H](OC(=O)c2cc(O)c(O)c(O)c2)[C@H]1OC(=O)c1cc(O)c(O)c(O)c1)c1cc(O)c(O)c(O)c1 [Eugeniin] | exhibited anti-herpes simplex virus (HSV-2) activity |  | 
COC(=O)c1cc(O)c(O)c(O)c1 [methyl gallate] | exhibited anti-herpes simplex virus (HSV-2) activity |  | 
COCc1cc2cc(OC)c(OC)cc2c(-c2ccc3c(c2)OCO3)c1C=O [phyllamycin B] |  | inhibitory effect | 
COc1cc2cc3c(c(-c4ccc5c(c4)OCO5)c2cc1OC)COC3=O [retrojusticiden B] |  | inhibitory effect | 
Prunellin |  |  | minimum inhibition concentration against HIV-1 in vitro (HIV-1): 2.2 µg/mL
